Measurements reported in US20040234527A1, “Peptides for use as translocation factors” (priority 2001, published 2004).
Several values for one entry are separate records, joined by “and”; a condition that tells them apart may be missing. Equal entries are not always repeated.

Legend:
Hela cells = experiment: β-Galactosidase activity recovered from cell extracts after lipofectin delivery or translocation (4 hours); assay type: cell-based
Method: (§1) The quantitative measurement of translocation was carried out by reading the activity of a β-Galactosidase enzyme that was included as part of a fusion protein with the translocation agents. When provided with the appropriate galactoside substrate, the enzyme deglycosylates the substrate leading to the accumulation of dioxetane. During a following incubation in a different buffer, the dioxetane becomes deprotonated and decomposes with emission of light (425 nm) that can be read using a luminometer. This system, therefore, provided a sensitive means of detecting the amount of the β-Galactosidase present in the samples, and ultimately, the amount of fusion protein delivered into the cells.
The experiments were carried out using 8-well chamber slides. 3×10^4 Hela cells were seeded into each well, suplemented with 400 μl RPMI+10% FCS medium and incubated overnight at 37° C. and 5% CO2. The following day, the appropriate dilutions of protein were made into RPMI medium and added to the wells. Both lipofectin delivery and translocation experiments were carried out for 4 hours.
The experiments were carried out on two different days: the first day a negative control β-Galactosidase and the H1.4B-Bgal were tested, and the second day the antennapedia fusion (Antp-βgal) was tested. A lipofectin delivery of β-Galactosidase, provided by Roche, was performed on both days as positive control for delivery into the cells.
(§2) It was decided to start with the amount of each that gave a value close to 6×10^7 rlu, as this is the limit of the equipment's capacity. From that value, three consecutive ⅕ fold dilutions were made in each case.
(§3) Therefore, the original activity of the different proteins was also measured in parallel to the activity recovered after translocation, in order to make sure that all the proteins were standardised to an original maximum activity of around 6×10^7 rlu.
The results after translocation were obtained by reading the β-Galactosidase recovered from the cell extracts and are shown in Tables 6 and 7. […] In any case, the values for the biggest amounts of β-Galactosidase protein are clearly lower than those obtained from the delivery systems.

[1] = β-Galactosidase activity of the protein constructs before delivery (luminometer); assay type: biochemical; conditions: 80 ng protein; Table 6 (first day)
Method: as §1, §2, §3

Substance	Activity after transfection (Hela cells; 1.6 ng protein, Table 6 (first day))	Activity after transfection (Hela cells; 1.6 ng protein, Table 7 (second day))	Activity after transfection (Hela cells; 8 ng protein, Table 6 (first day))	Activity after transfection (Hela cells; 8 ng protein, Table 7 (second day))	Activity after transfection (Hela cells; 40 ng protein, Table 6 (first day))	Activity after transfection (Hela cells; 40 ng protein, Table 7 (second day))	Activity after transfection (Hela cells; 640 pg protein, Table 6 (first day))	Activity after transfection (Hela cells; 3.2 ng protein, Table 6 (first day))	Activity after transfection (Hela cells; 15 ng protein, Table 6 (first day)) [rlu]	Activity after transfection (Hela cells; 16 ng protein, Table 6 (first day)) [rlu]	Activity after transfection (Hela cells; 80 ng protein, Table 6 (first day))	Protein activity [1]
β-Gal positive control (Roche): β-Galactosidase provided by Roche, delivered with lipofectin reagent as positive control for delivery into the cells	50.353 rlu and 47.212 rlu	40.121 rlu and 33.578 rlu	140.342 rlu and 162.319 rlu	164.745 rlu and 157.913 rlu	635.228 rlu and 675.640 rlu	715.773 rlu and 744.405 rlu						
β-Galactosidase: β-Galactosidase enzyme without translocation agent, negative control							25.076 rlu and 28.710 rlu	29.527 rlu and 35.227 rlu	56.941	55.164	242.200 rlu and 298.589 rlu	overload
